From article doi:10.1101/2023.10.24.563883v2 (biorxiv, 2024)

Target: T1, LPHN2 (Homo sapiens, UniProt O95490)
T1 sequence (O95490 26-1459): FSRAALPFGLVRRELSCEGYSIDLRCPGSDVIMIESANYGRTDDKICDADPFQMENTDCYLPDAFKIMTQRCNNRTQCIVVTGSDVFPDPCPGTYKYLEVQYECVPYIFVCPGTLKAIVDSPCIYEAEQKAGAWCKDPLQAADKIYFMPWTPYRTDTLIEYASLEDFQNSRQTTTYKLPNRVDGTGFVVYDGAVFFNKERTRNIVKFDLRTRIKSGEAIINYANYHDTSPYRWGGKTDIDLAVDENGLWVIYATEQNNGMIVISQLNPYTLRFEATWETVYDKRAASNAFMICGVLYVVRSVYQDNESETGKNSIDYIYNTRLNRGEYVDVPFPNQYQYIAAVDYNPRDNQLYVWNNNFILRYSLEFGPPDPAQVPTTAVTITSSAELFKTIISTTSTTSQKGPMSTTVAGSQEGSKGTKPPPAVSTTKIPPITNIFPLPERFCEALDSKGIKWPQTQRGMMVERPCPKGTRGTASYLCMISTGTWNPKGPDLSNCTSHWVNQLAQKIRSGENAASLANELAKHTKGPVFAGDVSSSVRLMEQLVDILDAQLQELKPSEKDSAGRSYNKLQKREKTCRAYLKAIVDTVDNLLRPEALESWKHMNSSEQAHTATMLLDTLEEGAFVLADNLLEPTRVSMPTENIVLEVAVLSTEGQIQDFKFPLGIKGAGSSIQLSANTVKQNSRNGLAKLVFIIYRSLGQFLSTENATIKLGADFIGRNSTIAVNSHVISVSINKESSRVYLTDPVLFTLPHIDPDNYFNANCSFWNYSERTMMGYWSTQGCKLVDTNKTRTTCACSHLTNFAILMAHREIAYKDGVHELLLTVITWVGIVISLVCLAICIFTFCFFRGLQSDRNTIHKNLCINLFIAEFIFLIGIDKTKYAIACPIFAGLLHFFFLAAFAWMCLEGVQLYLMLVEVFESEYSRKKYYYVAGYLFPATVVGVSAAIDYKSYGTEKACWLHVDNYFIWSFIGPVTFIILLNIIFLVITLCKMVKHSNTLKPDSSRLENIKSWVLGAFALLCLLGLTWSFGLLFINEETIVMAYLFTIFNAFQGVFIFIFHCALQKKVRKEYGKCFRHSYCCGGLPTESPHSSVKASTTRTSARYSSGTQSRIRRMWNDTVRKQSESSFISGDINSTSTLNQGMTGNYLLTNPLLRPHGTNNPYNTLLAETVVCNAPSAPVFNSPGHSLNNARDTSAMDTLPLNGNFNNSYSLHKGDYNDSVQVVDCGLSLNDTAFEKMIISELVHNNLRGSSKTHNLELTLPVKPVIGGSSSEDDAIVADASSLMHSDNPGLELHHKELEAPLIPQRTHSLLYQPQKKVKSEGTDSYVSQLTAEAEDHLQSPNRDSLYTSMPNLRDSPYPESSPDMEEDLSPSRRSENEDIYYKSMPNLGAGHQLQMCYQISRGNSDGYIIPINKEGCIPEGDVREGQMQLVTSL
Assay: BRET G protein
Assay type: cell-based

EC50: 39.9 ± 16.2 nM
SMILES: COc1ccc(OC)c(NC2=NC(=O)CC(C(=O)Nc3cc(C(F)(F)F)ccc3Cl)S2)c1 (stereo not shown) [D11]
